Experimental data taken from PubChem BioAssay (NCI).
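How tested: cells in 96-well plates exposed to compound for 48 hours at five concentrations. GI50: concentration for 50% inhibition of growth. At the TGI there is no net growth.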

Assays:
Assay in all cases: inhibition of tumour cell growth, NCI panel, 48 h
BT-549 breast = system: BT-549 breast
SNB-75 CNS = system: SNB-75 CNS
T-47D breast = system: T-47D breast
HS 578T breast = system: HS 578T breast
MCF7 breast = system: MCF7 breast
A549 NSCLC = system: A549 NSCLC
IGROV1 ovarian = system: IGROV1 ovarian
HCT-15 colon = system: HCT-15 colon
NCI-H23 lung = system: NCI-H23 lung
ACHN renal = system: ACHN renal

SMILES | GI50 (BT-549 breast) | TGI (BT-549 breast) | GI50 (SNB-75 CNS) | TGI (SNB-75 CNS) | GI50 (T-47D breast) | TGI (T-47D breast) | GI50 (HS 578T breast) | TGI (HS 578T breast) | GI50 (MCF7 breast) | TGI (MCF7 breast) | GI50 (A549 NSCLC) | TGI (A549 NSCLC) | GI50 (IGROV1 ovarian) | TGI (IGROV1 ovarian) | GI50 (HCT-15 colon) | TGI (HCT-15 colon) | GI50 (NCI-H23 lung) | TGI (NCI-H23 lung) | GI50 (ACHN renal) | TGI (ACHN renal)
OCCCCC#Cc1ccccc1C#Cc1ccccc1F | 21.7 µM | 52.7 µM | > 100 µM | > 100 µM | 16.1 µM | 42.6 µM | 27.5 µM | 71.9 µM | 42.1 µM | > 100 µM | 15.7 µM | 34.5 µM | 15 µM | 33.1 µM | 18 µM | 32.5 µM | 20.2 µM | 43.1 µM | 25.5 µM | 53.6 µM
COc1ccc(C(O)c2cc3c(N)c(C(=O)Nc4cccc(Cl)c4C)sc3nc2C)cc1 (stereo not given) | 0.888 µM | 1.77 µM | 0.637 µM | 1.34 µM | 0.953 µM | 2.2 µM | 0.774 µM | 1.79 µM | 0.569 µM | 1.24 µM | 0.933 µM | 2.02 µM | 0.687 µM | 1.44 µM | 0.623 µM | 1.33 µM | 0.926 µM | 1.8 µM | 0.877 µM | 1.63 µM
C=C1C(=O)O[C@H]2[C@H]1CC/C(CNS(=O)(=O)c1ccc3ccccc3c1)=C\CC[C@@]1(C)O[C@@H]21 | 1.76 µM | 4.02 µM | 10.5 µM | 23.6 µM | 1.92 µM | 4.64 µM | 4.69 µM | 29.1 µM | 0.943 µM | 2.62 µM | 10.9 µM | 25 µM | 2.87 µM | 8.2 µM | 1.27 µM | 2.77 µM | 2.03 µM | 6.14 µM | 0.514 µM | 1.91 µM
CCc1ccc(-c2ccc(=O)n(-c3ccc(S(N)(=O)=O)cc3)n2)cc1 | 0.916 µM | 21.7 µM | 2.96 µM | 28 µM | 3.85 µM | > 100 µM | 1.55 µM | 23.6 µM | 1.46 µM | > 43.5 µM | 3.14 µM | > 100 µM | 3.32 µM | > 77.6 µM | 0.746 µM | > 100 µM | 11.9 µM | > 100 µM | > 32.4 µM | > 100 µM
Nc1nc2c(c3ncccc13)C(c1ccc(Cl)c(Cl)c1)Cc1ncccc1-2 (stereo not given) | 3.73 µM | 16.7 µM | 1.85 µM | 6.6 µM | 2.39 µM | 13.4 µM | 3.62 µM | 19.2 µM | 2.99 µM | 14.2 µM | 4.24 µM | 15.3 µM | 7.83 µM | 28.1 µM | 4.36 µM | 16.1 µM | 5.59 µM | 21.6 µM | 4.55 µM | 16 µM
ON(CCc1ccncc1)Cc1ccccc1 | – | > 100 µM | – | > 100 µM | – | > 100 µM | – | > 100 µM | – | > 100 µM | – | > 100 µM | – | > 100 µM | – | > 100 µM | – | > 100 µM | – | > 100 µM
Cc1nc2cncc(C#Cc3cncc(C(=O)Nc4ccc(CN5CCN(C)CC5)c(C(F)(F)F)c4)c3)c2nc1C | 1.72 µM | 7.8 µM | 0.854 µM | 3.34 µM | 1.24 µM | 22.7 µM | 0.193 µM | 1.61 µM | 0.841 µM | 6.78 µM | 0.585 µM | 7.28 µM | 0.206 µM | 1.29 µM | 0.286 µM | 5.92 µM | 0.77 µM | 6.05 µM | 0.183 µM | 2.53 µM
CC1=C(C(=O)Nc2ccc3[nH]ncc3c2)C(c2ccc(F)cc2)NC(=O)N1 (stereo not given) | 16.9 µM | > 25 µM | 6.51 µM | > 25 µM | > 25 µM | > 25 µM | 7.41 µM | > 25 µM | > 25 µM | > 25 µM | > 25 µM | > 25 µM | > 25 µM | > 25 µM | > 25 µM | > 25 µM | > 25 µM | > 25 µM | > 25 µM | > 25 µM
OCc1cccc(-c2ccc3ncc(-c4nc(NC5CC5)ncc4F)n3c2)c1 | 0.23 µM | 0.811 µM | 0.199 µM | 0.453 µM | 0.274 µM | 3.93 µM | 0.212 µM | 0.701 µM | 0.308 µM | 1.19 µM | 0.341 µM | > 100 µM | 0.227 µM | 1.32 µM | 0.267 µM | 1.39 µM | 0.281 µM | 1.19 µM | 0.134 µM | 1.24 µM
NC(=O)C(Br)CBr (stereo not given) | 2.39 µM | 7.4 µM | 5.3 µM | 19.9 µM | 1.76 µM | 6.4 µM | 2.86 µM | 14.3 µM | 2.18 µM | 11.5 µM | 3.71 µM | 10.6 µM | 1.59 µM | 4.78 µM | 1.46 µM | 3.39 µM | 1.74 µM | 3.42 µM | 0.816 µM | 2.18 µM
O=C(Nc1c(Cl)cc([N+](=O)[O-])cc1Cl)C(=O)C1C(=O)NC(=S)NC1=O | – | > 100 µM | – | > 100 µM | – | > 100 µM | – | > 100 µM | – | > 100 µM | – | > 100 µM | – | > 100 µM | – | > 100 µM | – | > 100 µM | – | > 100 µM
